Experiments:
Conditions in all cases: 72 h
Caco-2 [1] = test: drug sensitivity score (DSS) for viability; higher = more toxic; extreme values may be limits of the assay
HepG2 [2] = test: as above
Calu-3 [3] = test: as above
Vero E6 [4] = test: as above
U2OS [5] = test: as above
Caco-2 [6] = test: cell viability relative to DMSO; higher = less toxic
HepG2 [7] = test: as above
Calu-3 [8] = test: as above
Vero E6 [9] = test: as above
U2OS [10] = test: as above
Caco-2 [11] = test: relative viability EC50 (midpoint between 100% and the lowest measured viability); higher = less toxic
HepG2 [12] = test: as above
Calu-3 [13] = test: as above
Vero E6 [14] = test: as above
U2OS [15] = test: as above

Structure (SMILES)	drug sensitivity score (Caco-2 [1])	drug sensitivity score (HepG2 [2])	drug sensitivity score (Calu-3 [3])	drug sensitivity score (Vero E6 [4])	drug sensitivity score (U2OS [5])	cell viability (Caco-2 [6]; 1 nM) [%]	cell viability (Caco-2 [6]; 10 nM) [%]	cell viability (Caco-2 [6]; 100 nM) [%]	cell viability (Caco-2 [6]; 1000 nM) [%]	cell viability (Caco-2 [6]; 10000 nM) [%]	cell viability (HepG2 [7]; 1 nM) [%]	cell viability (HepG2 [7]; 10 nM) [%]	cell viability (HepG2 [7]; 100 nM) [%]	cell viability (HepG2 [7]; 1000 nM) [%]	cell viability (HepG2 [7]; 10000 nM) [%]	cell viability (Calu-3 [8]; 1 nM) [%]	cell viability (Calu-3 [8]; 10 nM) [%]	cell viability (Calu-3 [8]; 100 nM) [%]	cell viability (Calu-3 [8]; 1000 nM) [%]	cell viability (Calu-3 [8]; 10000 nM) [%]	cell viability (Vero E6 [9]; 1 nM) [%]	cell viability (Vero E6 [9]; 10 nM) [%]	cell viability (Vero E6 [9]; 100 nM) [%]	cell viability (Vero E6 [9]; 1000 nM) [%]	cell viability (Vero E6 [9]; 10000 nM) [%]	cell viability (U2OS [10]; 1 nM) [%]	cell viability (U2OS [10]; 10 nM) [%]	cell viability (U2OS [10]; 100 nM) [%]	cell viability (U2OS [10]; 1000 nM) [%]	cell viability (U2OS [10]; 10000 nM) [%]	relative viability EC50 (Caco-2 [11]) [µM]	relative viability EC50 (HepG2 [12]) [µM]	relative viability EC50 (Calu-3 [13]) [µM]	relative viability EC50 (Vero E6 [14]) [µM]	relative viability EC50 (U2OS [15]) [µM]
CCOC(=O)[C@@H](N)Cc1ccc(-c2cc(O[C@H](c3ccc(Cl)cc3-n3ccc(C)n3)C(F)(F)F)nc(N)n2)cc1 [telotristat-ethyl]	0	0	0	0	0	97.3	89.6	104	99.4	88.6	97.7	106	94.5	102	113	96.6	99.7	106	91.1	95.4	96.6	91.8	95.2	95.5	107	96.6	93.5	93.6	100	96.4	> 10	> 10	> 10	> 10	> 10
COc1cc2nc(N3CCN(C(=O)C4CCCO4)CC3)nc(N)c2cc1OC (stereo not given) [terazosin]	0	0	0	0	0	104	95.3	95.4	92.5	95.3	107	96.7	101	103	112	96.1	106	105	99.9	96.3	96.4	95.4	97	92.9	104	97.8	102	96	101	103	> 10	> 10	> 10	> 10	> 10
C/C(O)=C(\C#N)C(=O)Nc1ccc(C(F)(F)F)cc1 [teriflunomide]	0	0	0	0	0	98.1	98.2	102	95.1	94.1	104	107	93.4	98.1	94.4	104	97.2	95.3	105	94.2	102	101	97.1	98.2	93.9	102	98	102	99.8	99.7	> 10	> 10	> 10	> 10	> 10
COc1ccc(CN(CCN(C)C)c2ncccn2)cc1 [thonzylamine]	0	0	0	0	0	99.7	104	93.8	101	105	93.2	103	97.6	102	98.9	96.2	103	96.9	92.5	101	102	102	98.1	104	95.9	97.2	101	96	98.3	105	> 10	> 10	> 10	> 10	> 10
C[N+]12CCCCC1CCC(=C(c1cccs1)c1cccs1)C2 (stereo not given) [tiquizium]	0	0	0	0	0	89.3	96.3	89.7	90.3	100	103	86.9	98.9	93.7	94	100	102	97.8	111	99	106	88.6	98.3	87	100	98.1	99.2	94.3	103	102	> 10	> 10	> 10	> 10	> 10
CCCCNC(=O)NS(=O)(=O)c1ccc(C)cc1 [tolbutamide]	0	0	0	0	0	101	96.7	96.2	96.3	96.3	87.5	98	103	94.3	99.9	95.1	90.2	95.7	107	94.3	104	103	105	102	97.4	101	98.5	99.2	96.7	98.6	> 10	> 10	> 10	> 10	> 10
CCOc1cc(OCC)c(C(=O)CCC(=O)O)cc1OCC [trepibutone]	0	0	0	0	0	98.6	98.4	102	101	96.7	100	96.9	104	98.1	99.9	108	105	107	102	99.8	94.5	105	99.8	97.3	92.7	101	94.3	94.5	100	96.6	> 10	> 10	> 10	> 10	> 10
CC(C)C[C@H](NC(=O)[C@@H](Cc1c[nH]c2ccccc12)NC(=O)[C@H](Cc1ccc(O)cc1)NC(=O)[C@H](CO)NC(=O)[C@H](Cc1c[nH]c2ccccc12)NC(=O)[C@H](Cc1c[nH]cn1)NC(=O)[C@@H]1CCC(=O)N1)C(=O)N[C@@H](CCCNC(=N)N)C(=O)N1CCC[C@H]1C(=O)NCC(N)=O [triptorelin]	0	0	0	0	0	95.7	110	92.8	102	110	102	86.3	93	110	120	90.2	80.1	90	99.2	106	94.5	98.5	98	74.8	107	91.2	102	96.8	99.2	108	> 10	> 10	> 10	> 10	> 10
CN1[C@@H]2CC[C@H]1C[C@@H](OC(=O)c1c[nH]c3ccccc13)C2 [tropisetron]	0	0	0	0	0	102	108	101	103	97.5	100	101	93.1	96.7	101	100	93.8	99.9	88.6	97.6	98.2	97.3	98.2	99.9	96.2	104	103	96.8	100	98.3	> 10	> 10	> 10	> 10	> 10
CCC(CO)(C(=O)OC1CC2CCC(C1)[N+]2(C)C)c1ccccc1 (stereo not given) [troventol]	0	0	0	0	0	92.5	92.6	98.5	94.2	94.2	93.6	103	93.1	107	113	99.8	94.6	91.8	102	93.9	93.7	96	86.6	97.8	110	97.3	94.3	99.4	97.8	105	> 10	> 10	> 10	> 10	> 10
Cc1cc(Cn2nnc3c(-c4ccco4)nc(N)nc32)ccc1N [vipadenant]	0	0	0	0.2	0	110	106	115	113	97.1	81.9	80.5	99	91.8	96.3	108	103	108	94.1	107	109	105	99.7	92.8	88.7	99.6	97.7	98.2	98.7	101	> 10	> 10	> 10	> 10	> 10
O=C(O)c1ccccc1-c1ccc(C(F)(F)F)cc1 [xenalipin]	0	0	0	0	0	97.1	92.8	99	92.1	97.6	89.1	90.8	94.6	97	109	101	101	111	98.6	107	98.6	104	92.2	98.6	98.2	100	95.8	103	98	105	> 10	> 10	> 10	> 10	> 10
O=C1Cc2cc(CCN3CCN(c4nsc5ccccc45)CC3)c(Cl)cc2N1 [ziprasidone]	0.8	0.2	0	0	0	100	90.5	98.3	102	75.6	105	120	102	103	83.8	103	97.8	91.9	97.4	108	106	105	95.8	104	98.4	101	99.4	100	98.9	96.4	> 10	> 10	> 10	> 10	> 10

— the supplement of paper PMC13380429
